Where “and” joins values, the source holds several entries; their conditions need not be identical. Equal values may be shown once. Numbers after ± are expanded uncertainties.
Settings: horizontal capillary tube

## O [water]
249.9 K, Metastable liquid
  surface tension liquid-gas: 78.88 ± 0.8 mN/m and 78.87 ± 0.8 mN/m
249.91 K, Metastable liquid
  surface tension liquid-gas: 78.91 ± 0.8 mN/m
250.79 K, Metastable liquid
  surface tension liquid-gas: 78.85 ± 0.8 mN/m
250.8 K, Metastable liquid
  surface tension liquid-gas: 78.72 ± 0.78 mN/m
250.81 K, Metastable liquid
  surface tension liquid-gas: 78.72 ± 0.78 mN/m
250.82 K, Metastable liquid
  surface tension liquid-gas: 78.72 ± 0.78 mN/m and 78.77 ± 0.78 mN/m and 78.69 ± 0.78 mN/m
251.37 K, Metastable liquid
  surface tension liquid-gas: 78.69 ± 0.8 mN/m and 78.66 ± 0.8 mN/m
251.39 K, Metastable liquid
  surface tension liquid-gas: 78.68 ± 0.8 mN/m
251.91 K, Metastable liquid
  surface tension liquid-gas: 78.65 ± 0.8 mN/m
251.92 K, Metastable liquid
  surface tension liquid-gas: 78.65 ± 0.8 mN/m
252.81 K, Metastable liquid
  surface tension liquid-gas: 78.39 ± 0.78 mN/m
252.82 K, Metastable liquid
  surface tension liquid-gas: 78.47 ± 0.78 mN/m
252.86 K, Metastable liquid
  surface tension liquid-gas: 78.51 ± 0.8 mN/m and 78.48 ± 0.8 mN/m and 78.47 ± 0.8 mN/m
252.88 K, Metastable liquid
  surface tension liquid-gas: 78.38 ± 0.78 mN/m and 78.4 ± 0.78 mN/m and 78.41 ± 0.78 mN/m
253.36 K, Metastable liquid
  surface tension liquid-gas: 78.37 ± 0.78 mN/m and 78.4 ± 0.78 mN/m
253.79 K, Metastable liquid
  surface tension liquid-gas: 78.34 ± 0.78 mN/m
253.81 K, Metastable liquid
  surface tension liquid-gas: 78.27 ± 0.78 mN/m
254.9 K, Metastable liquid
  surface tension liquid-gas: 78.3 ± 0.8 mN/m
254.91 K, Metastable liquid
  surface tension liquid-gas: 78.28 ± 0.8 mN/m
255.29 K, Metastable liquid
  surface tension liquid-gas: 78.03 ± 0.8 mN/m
255.32 K, Metastable liquid
  surface tension liquid-gas: 78.13 ± 0.78 mN/m
255.33 K, Metastable liquid
  surface tension liquid-gas: 78.15 ± 0.78 mN/m
255.34 K, Metastable liquid
  surface tension liquid-gas: 78.07 ± 0.78 mN/m [middle of 4 runs]
255.84 K, Metastable liquid
  surface tension liquid-gas: 78.05 ± 0.78 mN/m and 78.06 ± 0.78 mN/m
255.85 K, Metastable liquid
  surface tension liquid-gas: 78.07 ± 0.78 mN/m
256.33 K, Metastable liquid
  surface tension liquid-gas: 77.91 ± 0.78 mN/m
256.34 K, Metastable liquid
  surface tension liquid-gas: 77.97 ± 0.78 mN/m
256.87 K, Metastable liquid
  surface tension liquid-gas: 77.86 ± 0.78 mN/m and 77.87 ± 0.78 mN/m
257.83 K, Metastable liquid
  surface tension liquid-gas: 77.72 ± 0.78 mN/m
257.84 K, Metastable liquid
  surface tension liquid-gas: 77.75 ± 0.78 mN/m
257.87 K, Metastable liquid
  surface tension liquid-gas: 77.94 ± 0.8 mN/m
257.88 K, Metastable liquid
  surface tension liquid-gas: 77.92 ± 0.8 mN/m
258.8 K, Metastable liquid
  surface tension liquid-gas: 77.63 ± 0.78 mN/m
258.81 K, Metastable liquid
  surface tension liquid-gas: 77.61 ± 0.78 mN/m
259.3 K, Metastable liquid
  surface tension liquid-gas: 77.59 ± 0.78 mN/m and 77.6 ± 0.78 mN/m
259.8 K, Metastable liquid
  surface tension liquid-gas: 77.54 ± 0.78 mN/m and 77.5 ± 0.78 mN/m
260.83 K, Metastable liquid
  surface tension liquid-gas: 77.35 ± 0.78 mN/m
260.84 K, Metastable liquid
  surface tension liquid-gas: 77.36 ± 0.78 mN/m
261.8 K, Metastable liquid
  surface tension liquid-gas: 77.24 ± 0.76 mN/m
261.81 K, Metastable liquid
  surface tension liquid-gas: 77.2 ± 0.76 mN/m
262.27 K, Metastable liquid
  surface tension liquid-gas: 77.23 ± 0.78 mN/m
262.28 K, Metastable liquid
  surface tension liquid-gas: 77.21 ± 0.78 mN/m
262.82 K, Metastable liquid
  surface tension liquid-gas: 77.04 ± 0.78 mN/m and 77.06 ± 0.78 mN/m
262.83 K, Metastable liquid
  surface tension liquid-gas: 77.07 ± 0.78 mN/m
263.26 K, Metastable liquid
  surface tension liquid-gas: 77 ± 0.76 mN/m
263.27 K, Metastable liquid
  surface tension liquid-gas: 77.01 ± 0.76 mN/m
263.76 K, Metastable liquid
  surface tension liquid-gas: 76.93 ± 0.78 mN/m
263.77 K, Metastable liquid
  surface tension liquid-gas: 76.91 ± 0.78 mN/m and 76.87 ± 0.78 mN/m
265.74 K, Metastable liquid
  surface tension liquid-gas: 76.71 ± 0.78 mN/m
265.75 K, Metastable liquid
  surface tension liquid-gas: 76.75 ± 0.78 mN/m
265.76 K, Metastable liquid
  surface tension liquid-gas: 76.61 ± 0.76 mN/m and 76.68 ± 0.76 mN/m and 76.64 ± 0.76 mN/m
265.77 K, Metastable liquid
  surface tension liquid-gas: 76.6 ± 0.78 mN/m
265.78 K, Metastable liquid
  surface tension liquid-gas: 76.61 ± 0.78 mN/m
266.23 K, Metastable liquid
  surface tension liquid-gas: 76.6 ± 0.76 mN/m and 76.58 ± 0.76 mN/m
266.74 K, Metastable liquid
  surface tension liquid-gas: 76.55 ± 0.76 mN/m and 76.54 ± 0.76 mN/m
268.21 K, Metastable liquid
  surface tension liquid-gas: 76.34 ± 0.76 mN/m and 76.3 ± 0.76 mN/m
268.7 K, Metastable liquid
  surface tension liquid-gas: 76.22 ± 0.8 mN/m
269.18 K, Metastable liquid
  surface tension liquid-gas: 76.23 ± 0.76 mN/m
269.19 K, Metastable liquid
  surface tension liquid-gas: 76.24 ± 0.76 mN/m
269.36 K, Metastable liquid
  surface tension liquid-gas: 76.19 ± 0.76 mN/m
269.69 K, Metastable liquid
  surface tension liquid-gas: 76.1 ± 0.76 mN/m
270.17 K, Metastable liquid
  surface tension liquid-gas: 76.05 ± 0.76 mN/m
270.65 K, Metastable liquid
  surface tension liquid-gas: 76.02 ± 0.76 mN/m
270.67 K, Metastable liquid
  surface tension liquid-gas: 76.02 ± 0.76 mN/m
272.68 K, Metastable liquid
  surface tension liquid-gas: 75.72 ± 0.76 mN/m
272.69 K, Metastable liquid
  surface tension liquid-gas: 75.75 ± 0.76 mN/m
273.56 K, Metastable liquid
  surface tension liquid-gas: 75.62 ± 0.74 mN/m
273.61 K, Metastable liquid
  surface tension liquid-gas: 75.56 ± 0.78 mN/m
273.64 K, Metastable liquid
  surface tension liquid-gas: 75.58 ± 0.74 mN/m
273.69 K, Metastable liquid
  surface tension liquid-gas: 75.61 ± 0.78 mN/m and 75.64 ± 0.78 mN/m
275.62 K, Liquid
  surface tension liquid-gas: 75.24 ± 0.76 mN/m
275.63 K, Liquid
  surface tension liquid-gas: 75.28 ± 0.76 mN/m and 75.24 ± 0.76 mN/m
276.61 K, Liquid
  surface tension liquid-gas: 75.19 ± 0.76 mN/m
276.63 K, Liquid
  surface tension liquid-gas: 75.19 ± 0.76 mN/m and 75.16 ± 0.76 mN/m
278.09 K, Liquid
  surface tension liquid-gas: 74.96 ± 0.74 mN/m
278.11 K, Liquid
  surface tension liquid-gas: 74.98 ± 0.74 mN/m
279.56 K, Liquid
  surface tension liquid-gas: 74.68 ± 0.74 mN/m
279.58 K, Liquid
  surface tension liquid-gas: 74.74 ± 0.74 mN/m
280.58 K, Liquid
  surface tension liquid-gas: 74.59 ± 0.74 mN/m
280.59 K, Liquid
  surface tension liquid-gas: 74.56 ± 0.74 mN/m and 74.58 ± 0.74 mN/m
281.55 K, Liquid
  surface tension liquid-gas: 74.41 ± 0.74 mN/m
282.06 K, Liquid
  surface tension liquid-gas: 74.39 ± 0.74 mN/m and 74.37 ± 0.74 mN/m
283.5 K, Liquid
  surface tension liquid-gas: 74.17 ± 0.74 mN/m
283.59 K, Liquid
  surface tension liquid-gas: 74.17 ± 0.74 mN/m
283.6 K, Liquid
  surface tension liquid-gas: 74.15 ± 0.74 mN/m
283.67 K, Liquid
  surface tension liquid-gas: 74.15 ± 0.74 mN/m
284.61 K, Liquid
  surface tension liquid-gas: 74.14 ± 0.74 mN/m
284.62 K, Liquid
  surface tension liquid-gas: 74.11 ± 0.74 mN/m
292 K, Liquid
  surface tension liquid-gas: 72.91 ± 0.74 mN/m and 72.88 ± 0.74 mN/m
293.63 K, Liquid
  surface tension liquid-gas: 72.7 ± 0.76 mN/m and 72.67 ± 0.76 mN/m
293.66 K, Liquid
  surface tension liquid-gas: 72.67 ± 0.74 mN/m and 72.7 ± 0.74 mN/m
295.63 K, Liquid
  surface tension liquid-gas: 72.36 ± 0.74 mN/m
295.65 K, Liquid
  surface tension liquid-gas: 72.33 ± 0.74 mN/m

Source: the NIST ThermoML archive (doi:10.1021/acs.jced.7b00519)
